Test results taken from ChEMBL document CHEMBL5537117, “Novel 3-hydroxypyridin-4(1H)-One derivatives as ferroptosis inhibitors with iron-chelating and reactive oxygen species scavenging activities and therapeutic effect in cisplatin-induced cytotoxicity” (Eur J Med Chem, 2024).
Calls of active or inactive are those of the source. The rule behind the calls is not given here.

Key:
HT-22 [1] = experiment: Anti-ferroptotic activity in erastin-induced ferroptosis in mouse HT-22 cells assessed as cell viability incubated for 24 hrs by MTT assay; format: functional, cell-based; conditions: HT-22, 24 h
[2] = AUC (0 to t) in rat at 15 mg/kg, IG measured upto 24 hrs by UPLC-MS analysis; format: ADME, organism-based; conditions: in vivo, po
[3] = Volume of distribution at steady state in rat at 15 mg/kg, IG measured upto 24 hrs by UPLC-MS analysis; format: ADME, organism-based; conditions: in vivo, po
HEK-293T [4] = experiment: Protection against cisplatin-induced cytotoxicity in HEK293T cells assessed as reduction in LPO accumulation at 50 uM measured after 24 hrs by BODIPY-C11 based flow cytometry analysis; format: functional, cell-based; conditions: Homo sapiens
HEK-293T [5] = experiment: Protection against cisplatin-induced cytotoxicity in HEK293T cells assessed as cell viability measured after 24 to 48 hrs by MTT assay; format: functional, cell-based; conditions: Homo sapiens
HEK-293T [6] = experiment: Protection against cisplatin-induced cytotoxicity in HEK293T cells assessed as reduction in attenuation of intracellular Fe2+ at 30 to 80 uM measured after 24 hrs by FeRhoNox-1 based flow cytometry analysis; format: functional, cell-based; conditions: Homo sapiens, dose 30-80 µM
HT-22 [7] = experiment: Cytotoxicity against mouse HT-22 cells assessed as reduction in cell viability at 150 uM by MTT assay relative to control; format: toxicity, cell-based; conditions: ht-22, 150 µM
[8] = Antioxidant activity assessed as ABTS radical scavenging activity incubated in dark for 6 mins by absorbance based microplate reader analysis; format: functional
[9] = Tmax in rat at 5 mg/kg, iv measured upto 24 hrs by UPLC-MS analysis; format: ADME, organism-based; conditions: in vivo
HEK-293T [10] = experiment: Protection against cisplatin-induced cytotoxicity in HEK293T cells assessed as reduction in ROS accumulation at 50 uM measured after 24 hrs by DCFH-DA based flow cytometry analysis; format: functional, cell-based; conditions: Homo sapiens
[11] = Half life in rat at 5 mg/kg, iv measured upto 24 hrs by UPLC-MS analysis; format: ADME, organism-based; conditions: in vivo
[12] = Half life in rat at 15 mg/kg, IG measured upto 24 hrs by UPLC-MS analysis; format: ADME, organism-based; conditions: in vivo, po
[13] = Metal chelating activity assessed as Fe3+ chelation
HT-22 [14] = experiment: Anti-ferroptotic activity against Erastin-induced ferroptosis in mouse HT-22 cells assessed as reduction in LIP level by measuring fluorescence intensity measured after 24 hrs by FeRhoNox-1 based flow cytometry analysis; format: functional, cell-based; conditions: dose 20-100 µM
[15] = Acid dissociation constant, pKa2 of the compound in 0.1M KCl at pH 2.0 to 10.5 by UV absorption method; format: physicochemical
[16] = AUC (0 to t) in rat at 5 mg/kg, iv measured upto 24 hrs by UPLC-MS analysis; format: ADME, organism-based; conditions: in vivo
[17] = Acid dissociation constant, pKa1 of the compound in 0.1M KCl at pH 2.0 to 10.5 by UV absorption method; format: physicochemical
[18] = Volume of distribution at steady state in rat at 5 mg/kg, iv measured upto 24 hrs by UPLC-MS analysis; format: ADME, organism-based; conditions: in vivo, read-out: Vdss
[19] = Antioxidant activity assessed as trolox equivalent of ORAC radical scavenging activity at 4 uM; format: functional
[20] = Clearance in rat at 5 mg/kg, iv measured upto 24 hrs by UPLC-MS analysis; format: ADME, organism-based; conditions: in vivo
[21] = Oral bioavailability in rat at 15 mg/kg, IG measured upto 24 hrs by UPLC-MS analysis; format: ADME, organism-based; conditions: in vivo
[22] = Cmax in rat at 5 mg/kg, iv measured upto 24 hrs by UPLC-MS analysis; format: ADME, organism-based; conditions: in vivo
[23] = Log K2 of the compound in 0.1M KCl at pH 2.0 to 10.5 by UV absorption method; format: physicochemical
[24] = Cmax in rat at 15 mg/kg, IG measured upto 24 hrs by UPLC-MS analysis; format: ADME, organism-based; conditions: in vivo, po
HT-22 [25] = experiment: Anti-ferroptotic activity against Erastin-induced ferroptosis in mouse HT-22 cells assessed as reduction in LPO accumulation measured after 24 hrs by BODIPY-C11 based flow cytometry analysis; format: functional, cell-based; conditions: dose 20-100 µM
[26] = Antioxidant activity assessed as trolox equivalent of ORAC radical scavenging activity at 8 uM; format: functional
[27] = AUC (0 to infinity) in rat at 15 mg/kg, IG measured upto 24 hrs by UPLC-MS analysis; format: ADME, organism-based; conditions: in vivo, po
HT-22 [28] = experiment: Anti-ferroptotic activity against Erastin-induced ferroptosis in mouse HT-22 cells assessed as reduction in ROS accumulation measured after 24 hrs by DCFH-DA based flow cytometry analysis; format: functional, cell-based; conditions: dose 20-100 µM
[29] = Log K1 of the compound in 0.1M KCl at pH 0.9 to 2.1 by UV absorption method; format: physicochemical
[30] = Log K3 of the compound in 0.1M KCl at pH 2.0 to 10.5 by UV absorption method; format: physicochemical
[31] = Tmax in rat at 15 mg/kg, IG measured upto 24 hrs by UPLC-MS analysis; format: ADME, organism-based; conditions: in vivo, po
[32] = Acid dissociation constant, pKa3 of the compound in 0.1M KCl at pH 2.0 to 10.5 by UV absorption method; format: physicochemical
[33] = MRT (0 to infinity) in rat at 5 mg/kg, iv measured upto 24 hrs by UPLC-MS analysis; format: ADME, organism-based; conditions: in vivo
[34] = Clearance in rat at 15 mg/kg, IG measured upto 24 hrs by UPLC-MS analysis; format: ADME, organism-based; conditions: in vivo, po
[35] = AUC (0 to infinity) in rat at 5 mg/kg, iv measured upto 24 hrs by UPLC-MS analysis; format: ADME, organism-based; conditions: in vivo
[36] = MRT (0 to infinity) in rat at 15 mg/kg, IG measured upto 24 hrs by UPLC-MS analysis; format: ADME, organism-based; conditions: in vivo, po

Cc1c(O)c(=O)ccn1NC(=O)/C=C/c1cccc(F)c1
EC50 (HT-22 [1]): 14.9 µM
AUC(0-t) at 24 h [2]: 120 ng·h/mL
Vdss [3]: 1.42 L/kg
Activity (HEK-293T [4]): Active
EC50 (HEK-293T [5]): 24.9 µM
Activity (HEK-293T [6]): Active
Activity (HT-22 [7]): > 80%
IC50 [8]: 4.35 µM
Tmax [9]: 8.4 min
Activity (HEK-293T [10]): Active
half-life [11]: 3.74 h
half-life [12]: 5.83 h
Activity [13]: 18.6
Activity (HT-22 [14]): Dose-Dependent Effect
pKa [15]: 6.78
AUC(0-t) at 24 h [16]: 364 ng·h/mL
pKa [17]: 2.32
Vd [18]: 0.07 L/kg
Activity [19]: 23.8
CL [20]: 0.33 mL/min/kg
bioavailability [21]: 8.06%
Cmax [22]: 472 ng/mL
log(activity) [23]: 26.56
Cmax [24]: 24.1 ng/mL
Activity (HT-22 [25]): Dose-Dependent Effect
Activity [26]: 36
AUC [27]: 136.25 ng·h/mL
Activity (HT-22 [28]): Dose-Dependent Effect
log(activity) [29]: 14.67
log(activity) [30]: 36.22
Tmax [31]: 0.19 h
pKa [32]: 10.1
MRT inf [33]: 2.34 h
CL [34]: 2.33 mL/min/kg
AUC [35]: 365.99 ng·h/mL
MRT inf [36]: 8.22 h
